This note sets out measurements from patent US20240067693A1, “POLYPEPTIDES AND USES THEREOF” (MEDIMMUNE LIMITED, priority 2020, published 2024).

In experiment [1] the target is T1, human amylin receptor (calcitonin receptor co-expressed with receptor activity modifying protein, RAMP3) (hAMYR3) (Homo sapiens, UniProt O60896+P30988).
T1 construct: expressed in transfected cells
T1 sequence (P30988 25-474): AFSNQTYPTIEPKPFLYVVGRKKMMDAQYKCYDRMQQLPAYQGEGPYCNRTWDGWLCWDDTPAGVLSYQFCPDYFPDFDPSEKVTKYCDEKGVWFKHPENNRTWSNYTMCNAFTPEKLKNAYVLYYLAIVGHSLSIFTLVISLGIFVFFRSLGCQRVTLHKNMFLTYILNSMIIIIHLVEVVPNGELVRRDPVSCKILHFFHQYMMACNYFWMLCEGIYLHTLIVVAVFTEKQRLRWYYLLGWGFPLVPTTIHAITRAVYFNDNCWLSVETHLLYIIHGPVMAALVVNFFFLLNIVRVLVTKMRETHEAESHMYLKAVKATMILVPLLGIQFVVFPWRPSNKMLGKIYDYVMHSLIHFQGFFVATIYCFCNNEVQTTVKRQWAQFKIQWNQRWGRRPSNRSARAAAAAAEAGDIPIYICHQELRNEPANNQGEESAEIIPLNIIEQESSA
T1 sequence (O60896 24-148 partner): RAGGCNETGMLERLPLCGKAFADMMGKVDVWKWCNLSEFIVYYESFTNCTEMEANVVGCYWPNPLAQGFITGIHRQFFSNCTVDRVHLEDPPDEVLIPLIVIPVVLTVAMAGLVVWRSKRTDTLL
As to the kind of experiment: cAMP production in 1321N1 cells with stable recombinant expression of human amylin receptor (hAMYR3). The experiment is classed as cell-based. The settings on record: for Ratio (selectivity hAMYR vs hCTR, ratio of EC50 values at the two receptors): EC50 hCTR / EC50 hAMYR3; for EC50: cAMP, 1321N1 cells, assay buffer with 0.1% BSA, read-out: EC50 (pM) hAMYR3. In outline: (§1)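 EC50 values come from 4-parameter logistic fits of HTRF cAMP signal, normalised to maximal calcitonin or amylin effect. Peptides were tested in duplicate for 30 min at RT in IBMX-containing (0.5 mM) BSA/HEPES buffer pH 7.4 on stable 1321N1 (human CTR, AMYR3) or HEK (rat CTR, AMYR3) lines.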
(Cyclic AMP is a second messenger, typically raised through Gs and lowered through Gi signalling.)

The target of experiment [2] is T2, human calcitonin receptor (hCTR) (Homo sapiens, UniProt P30988).
T2 construct: expressed in transfected cells
T2 sequence (P30988 25-474): T1 sequence (P30988 25-474)
Nature of the experiment: cAMP production in 1321N1 cells with stable recombinant expression of human calcitonin receptor (hCTR). The experiment is classed as cell-based. The settings on record: cAMP, 1321N1 cells, assay buffer with 0.1% BSA; read-out: EC50 (pM) hCTR. In outline:
as §1

The structures appear in SMILES notation. Numbered stars: 1 amine (or outer) side, 2 acyl side, 3 side chain; on linkers, the order of the positions; unused ones are H or OH. Bridge positions count the residues as written; N and C are the ends. Square brackets hold non-standard residues; d marks the D form. Side chains are listed from the residue outwards. Peptide text beside a SMILES is read from it. * marks the point of attachment. C18 diacid = O=C(O)CCCCCCCCCCCCCCCCC(=O)*; γGlu = O=C(O)[C@H](CCC(=O)[*:2])N[*:1]; Dab = NCC[C@H](N)C(=O)O; Aib = CC(C)(N)C(=O)O

For the molecule `CC[C@H](C)[C@H](NC(=O)[C@@H]1CCCN1C(=O)CNC(=O)[C@H](Cc1ccccc1)NC(=O)[C@H](CC(N)=O)NC(=O)[C@@H]1CCCN1C(=O)[C@H](CO)NC(=O)[C@H](CO)NC(=O)[C@H](Cc1c[nH]cn1)NC(=O)C(C)(C)NC(=O)[C@H](CC(C)C)NC(=O)[C@H](Cc1ccccc1)NC(=O)[C@H](CC(N)=O)NC(=O)[C@H](C)NC(=O)[C@H](CC(C)C)NC(=O)[C@H](CCCNC(=N)N)NC(=O)[C@H](CCC(N)=O)NC(=O)[C@@H](NC(=O)[C@H](C)NC(=O)[C@@H]1CSSC[C@H](NC(=O)[C@H](CCCCN)NC(=O)[C@@H](N)CCCCNC(=O)CC[C@H](NC(=O)CCCCCCCCCCCCCCCCC(=O)O)C(=O)O)C(=O)N[C@@H](CC(N)=O)C(=O)N[C@@H]([C@@H](C)O)C(=O)N[C@@H](C)C(=O)N[C@@H]([C@@H](C)O)C(=O)N1)[C@@H](C)O)C(=O)N[C@@H](CC(C)C)C(=O)N1CCC[C@H]1C(=O)N1CCC[C@H]1C(=O)N[C@H](C(=O)N[C@@H](CCC(=O)O)C(=O)N[C@H](C(=O)NCC(=O)N[C@@H](CO)C(=O)N[C@@H](CC(N)=O)C(=O)N[C@H](C(=O)N[C@@H](Cc1ccc(O)cc1)C(N)=O)[C@@H](C)O)C(C)C)[C@@H](C)O` [Peptide 138] (H-K([γGlu-C18 diacid])KCNTATCATQRLANFL[Aib]HSSPNFGPILPPTEVGSNTY-NH2; disulfide 3-8), the “Ratio (selectivity hAMYR vs hCTR, ratio of EC50 values at the two receptors)” value in experiment [1] came out at 4.1. The results for the EC50 in experiment [1] and in experiment [2] were 612 pM and 2510 pM, respectively.
As to `CC[C@H](C)[C@H](NC(=O)[C@@H]1CCCN1C(=O)CNC(=O)[C@H](Cc1ccccc1)NC(=O)[C@H](CC(N)=O)NC(=O)[C@H](CCN)NC(=O)[C@H](CO)NC(=O)[C@H](CO)NC(=O)[C@H](Cc1c[nH]cn1)NC(=O)C(C)(C)NC(=O)[C@H](CC(C)C)NC(=O)[C@H](Cc1ccccc1)NC(=O)[C@H](CC(N)=O)NC(=O)[C@H](C)NC(=O)[C@H](CC(C)C)NC(=O)[C@H](CCCNC(=N)N)NC(=O)[C@H](CCC(N)=O)NC(=O)[C@@H](NC(=O)[C@H](C)NC(=O)[C@@H]1CSSC[C@H](NC(=O)[C@H](CCCCN)NC(=O)[C@@H](N)CCCCNC(=O)CC[C@H](NC(=O)CCCCCCCCCCCCCCCCC(=O)O)C(=O)O)C(=O)N[C@@H](CC(N)=O)C(=O)N[C@@H]([C@@H](C)O)C(=O)N[C@@H](C)C(=O)N[C@@H]([C@@H](C)O)C(=O)N1)[C@@H](C)O)C(=O)N[C@@H](CC(C)C)C(=O)N1CCC[C@H]1C(=O)N1CCC[C@H]1C(=O)N[C@H](C(=O)N[C@@H](CC(N)=O)C(=O)N[C@H](C(=O)NCC(=O)N[C@@H](CO)C(=O)N[C@@H](CC(N)=O)C(=O)N[C@H](C(=O)N[C@@H](Cc1ccc(O)cc1)C(N)=O)[C@@H](C)O)C(C)C)[C@@H](C)O` [Peptide 126, K(γE-C18diacid)K[CNTATC]ATQRLANFL(Aib)HSS(Dab)NFGPILPPTNVGSNTY-amide] (H-K([γGlu-C18 diacid])KCNTATCATQRLANFL[Aib]HSS[Dab]NFGPILPPTNVGSNTY-NH2; disulfide 3-8), the “Ratio (selectivity hAMYR vs hCTR, ratio of EC50 values at the two receptors)” value in experiment [1] was 19. Moreover, the EC50 in experiment [1] stood at 445 pM; in experiment [2], 8450 pM.
The like results for `CC[C@@H](C)[C@@H](NC(=O)[C@@H]1CCCN1C(=O)CNC(=O)[C@H](Cc1ccccc1)NC(=O)[C@H](CC(N)=O)NC(=O)C(C)(C)NC(=O)[C@H](CO)NC(=O)[C@H](CO)NC(=O)[C@H](Cc1c[nH]cn1)NC(=O)[C@@H](NC(=O)[C@H](CC(C)C)NC(=O)[C@H](Cc1ccccc1)NC(=O)[C@H](CC(N)=O)NC(=O)[C@H](C)NC(=O)[C@H](CC(C)C)NC(=O)[C@H](CCCNC(=N)N)NC(=O)[C@H](CCC(N)=O)NC(=O)[C@@H](NC(=O)[C@H](C)NC(=O)[C@@H]1CSSC[C@H](NC(=O)[C@@H](N)CCCCNC(=O)CC[C@H](NC(=O)CCCCCCCCCCCCCCCCC(=O)O)C(=O)O)C(=O)N[C@@H](CC(N)=O)C(=O)N[C@@H]([C@@H](C)O)C(=O)N[C@@H](C)C(=O)N[C@@H]([C@@H](C)O)C(=O)N1)[C@@H](C)O)C(C)C)C(=O)N[C@@H](CC(C)C)C(=O)N1CCC[C@H]1C(=O)N1CCC[C@H]1C(=O)N[C@H](C(=O)N[C@@H](CC(N)=O)C(=O)N[C@H](C(=O)NCC(=O)N[C@@H](CO)C(=O)N[C@@H](CC(N)=O)C(=O)N[C@H](C(=O)N[C@@H](Cc1ccc(O)cc1)C(N)=O)[C@@H](C)O)C(C)C)[C@@H](C)O` [Peptide 61, K(γE-C18diacid)[CNTATC]ATQRLANFLVHSS(Aib)NFGP(dl)LPPTNVGSNTY-amide] (H-K([γGlu-C18 diacid])CNTATCATQRLANFLVHSS[Aib]NFGP[dI]LPPTNVGSNTY-NH2; disulfide 2-7; N-terminus assumed) were, in that order, 7, 99 pM and 654 pM.
On to `CC[C@H](C)[C@H](NC(=O)[C@@H]1CCCN1C(=O)CNC(=O)[C@H](Cc1ccccc1)NC(=O)[C@H](CC(N)=O)NC(=O)[C@H](CC(N)=O)NC(=O)[C@H](CO)NC(=O)[C@H](CO)NC(=O)[C@H](Cc1c[nH]cn1)NC(=O)C(C)(C)NC(=O)[C@H](CC(C)C)NC(=O)[C@H](Cc1ccccc1)NC(=O)[C@H](CC(N)=O)NC(=O)[C@H](C)NC(=O)[C@H](CC(C)C)NC(=O)[C@H](CCCNC(=N)N)NC(=O)[C@H](CCC(N)=O)NC(=O)[C@@H](NC(=O)[C@H](C)NC(=O)[C@@H]1CSSC[C@H](NC(=O)[C@@H](N)CCCCNC(=O)CC[C@H](NC(=O)CCCCCCCCCCCCCCCCC(=O)O)C(=O)O)C(=O)N[C@@H](CC(N)=O)C(=O)N[C@@H]([C@@H](C)O)C(=O)N[C@@H](C)C(=O)N[C@@H]([C@@H](C)O)C(=O)N1)[C@@H](C)O)C(=O)N[C@H](CC(C)C)C(=O)N1CCC[C@H]1C(=O)N1CCC[C@H]1C(=O)N[C@H](C(=O)N[C@@H](CC(N)=O)C(=O)N[C@H](C(=O)NCC(=O)N[C@@H](CO)C(=O)N[C@@H](CC(N)=O)C(=O)N[C@H](C(=O)N[C@@H](Cc1ccc(O)cc1)C(N)=O)[C@@H](C)O)C(C)C)[C@@H](C)O` [Peptide 151, K(γE-C18diacid)[CNTATC]ATQRLANFL(Aib)HSSNNFGPI(dL)PPTNVGSNTY-amide] (H-K([γGlu-C18 diacid])CNTATCATQRLANFL[Aib]HSSNNFGPI[dL]PPTNVGSNTY-NH2; disulfide 2-7; N-terminus assumed), for which, in experiment [1], the “Ratio (selectivity hAMYR vs hCTR, ratio of EC50 values at the two receptors)” value was 14.7 and the concentration giving a half-maximal response (EC50) was found to be 61 pM. In addition, the half-maximal effective concentration (EC50) in experiment [2] was determined as 898 pM.
The like results for `CC[C@H](C)[C@H](NC(=O)[C@@H]1CCCN1C(=O)CNC(=O)[C@H](Cc1ccccc1)NC(=O)[C@H](CC(N)=O)NC(=O)C(C)(C)NC(=O)[C@H](CO)NC(=O)[C@H](CO)NC(=O)[C@H](Cc1c[nH]cn1)NC(=O)[C@@H](NC(=O)[C@H](CC(C)C)NC(=O)[C@H](Cc1ccccc1)NC(=O)[C@H](Cc1c[nH]cn1)NC(=O)[C@H](C)NC(=O)[C@H](CC(C)C)NC(=O)[C@H](CCCNC(=N)N)NC(=O)[C@H](CCC(N)=O)NC(=O)[C@@H](NC(=O)[C@H](C)NC(=O)[C@@H]1CSSC[C@H](NC(=O)[C@H](CCCCN)NC(=O)[C@@H](N)CCCCNC(=O)CC[C@H](NC(=O)CCCCCCCCCCCCCCCCC(=O)O)C(=O)O)C(=O)N[C@@H](CC(N)=O)C(=O)N[C@@H]([C@@H](C)O)C(=O)N[C@@H](C)C(=O)N[C@@H]([C@@H](C)O)C(=O)N1)[C@@H](C)O)C(C)C)C(=O)N[C@@H](CC(C)C)C(=O)N1CCC[C@H]1C(=O)N1CCC[C@H]1C(=O)N[C@H](C(=O)N[C@@H](CC(N)=O)C(=O)N[C@H](C(=O)NCC(=O)N[C@@H](CO)C(=O)N[C@@H](CCC(=O)O)C(=O)N[C@H](C(=O)N[C@@H](Cc1ccc(O)cc1)C(N)=O)[C@@H](C)O)C(C)C)[C@@H](C)O` [Peptide 47, K(γE-C18diacid)K[CNTATC]ATQRLAHFLVHSS(Aib)NFGPILPPTNVGSETY-amide] (H-K([γGlu-C18 diacid])KCNTATCATQRLAHFLVHSS[Aib]NFGPILPPTNVGSETY-NH2; disulfide 3-8; N-terminus assumed) were, in that order, 2, 218 pM and 468 pM.

For orientation: EC50 means the midpoint of the concentration-response curve.
